{"source": "patent US10906946B2", "about": "“Thrombin inhibitors” (priority 2015, dated 2021)", "key": {"[1]": {"system": "platelets (ADP-induced platelet aggregation)", "assay": "Preservation of platelet function in blood tubes (Multiplate, ADP-induced platelet aggregation)", "format": "cell-based, human (healthy volunteers)", "settings": "control tubes (0.109M citrate; >15 μg/ml hirudin), ADP agonist", "procedure": "Individual peptides are dissolved in phosphate buffered saline to prepare 10× peptide solutions (ie. concentrations of peptides are 10 times higher than the final concentrations at which they are to be tested). 0.3 ml of the 10× peptide solutions are placed in blood tubes without any additives. Blood was drawn from healthy volunteers using syringes and immediately transferred to a 50 ml conical centrifuge tube (Falcon tube) before pipetting 2.7 ml of the blood into blood tubes with peptide solutions. Final concentrations of peptides are as stated in Table 5 and 6.\nBlood tubes with various peptides at different concentrations were left standing at room temperature until tested at designated times. At different time points, tubes were inverted several times and blood samples were taken out for platelet aggregation tests using a Multiplate® Platelet aggregometer with adenosine diphosphate (ADP) as agonist according to manufacturer's recommended protocols."}, "thrombin": {"molecular_target": "T1, thrombin (Homo sapiens, UniProt P00734)", "T1 construct": "residues in the termini of the light chain; and in the autolysis loop and C-terminus of the heavy chain; purchased Chemo-Sero-Therapeutic Research Institute (Kaketsuken, Japan), as a gift, not bought", "assay": "Inhibition of thrombin fibrinogenolytic activity (fibrinogen clotting time)", "format": "biochemical", "procedure": "(§1) Thrombin amidolytic activity assays for all peptides were performed in 96-wells microtiter plates in 50 mM Tris buffer (pH 7.4) containing 100 mM NaCl and 1 mg/ml bovine serum albumin. Typically, 100 μl of peptide and 100 μl of thrombin were pre-incubated for different durations before 100 μl of S2238 was added to the reaction wells. The rates of formation of p-nitroaniline were followed by measuring the absorbance at 405 nm for 10 min with a Tecan InfinitePro M200 microplate reader from Tecan (Männedorf, Switzerland). Dose-response curves were fitted using the GraphPad Prizm software (San Diego, Calif., USA) to calculate IC50 values and Hill coefficients. To measure the inhibitory constants, different concentrations of S2238 were used and the residual velocities were determined using the Morrison's tight binding equation. Inhibition of thrombin fibrinogenolytic activity of peptides were tested by measuring absorbance at 650 nm using a Sunrise microplate reader from Tecan (Männedorf, Switzerland) as described previously [Koh C Y, et al., J Biol Chem 282: 29101-13 (2007)]. The selectivity of avathrin was examined against 13 serine proteases (FIG. 5). Effects of avathrin on the amidolytic activities of these serine proteases were determined using respective chromogenic substrates. Cleavage of avathrin by thrombin. Avathrin (150 μM) was incubated with thrombin (5 μM), in 50 mM Tris buffer (pH 7.4) containing 150 mM NaCl and 1 mg/ml BSA. After different incubation times, reactions were quenched with 1% TFA (pH 1.8) and loaded onto a Jupiter Proteo column (4 μm, 90 Å, 100×1.0 mm) attached to a Dionex nano-HPLC system from Thermo Fisher Scientific (Waltham, Mass., USA) and eluted using an acetonitrile gradient with 0.05% TFA and 99.95% MilliQ water as eluent A and 0.05% TFA, 19.95% MilliQ water and 80% ACN as eluent B. Masses of all peaks were measured to identify cleavage products, which were subsequently quantified by integrating the peaks and calculating the area under the curves. To measure the effect of different pre-incubation times on the thrombin inhibitory activity, amidolytic assays were performed for various incubation times (up to 36 h)."}, "human α-thrombin": {"molecular_target": "T2, human α-thrombin (Homo sapiens, UniProt P00734)", "T2 construct": "residues in the termini of the light chain; purchased Chemo-Sero-Therapeutic Research Institute (Kaketsuken, Japan), as a gift, not bought", "assay": "Thrombin amidolytic activity assay with chromogenic substrate S2238", "format": "biochemical", "settings": "for IC50: IC50 of inhibition of thrombin amidolytic activity, S2238 100 μM, without pre-incubation (0 min) where stated; for IC50 / Ki: thrombin 0.81 nM; for Ki: inhibitory constant Ki for thrombin, various S2238 concentrations; for Hill slope of thrombin amidolytic inhibition: 0 min pre-incubation where stated", "procedure": "as §1, with “Typically, 100 μl of peptide and 100 μl of thrombin were pre-incubated for different durations before 100 μl of S2238 was added to the reaction wells.” left out, “Cleavage of avathrin by thrombin.” left out"}}, "note": "“And” between values parts separate entries of the source, which are not always exact repeats. Equal entries are not always repeated. “Also recorded” adds a separate entry of the source. Peptide text beside a SMILES is read from it.", "data": [{"molecule": "O=C(O)CC(O)(CC(=O)O)C(=O)O", "note": "[citrate, reference compound]", "values": [{"measurement": "Multiplate AUC (U)", "setting": "[1]; 1.5 h", "value": 37, "unit": "U"}, {"measurement": "Multiplate AUC (U)", "setting": "[1]; 4 h", "value": 32.2, "unit": "U"}, {"measurement": "Multiplate AUC (U)", "setting": "[1]; 24 h", "value": 12.9, "unit": "U"}, {"measurement": "Multiplate AUC (U)", "setting": "[1]; 48 h", "value": 1.4, "unit": "U"}, {"measurement": "Multiplate AUC (U)", "setting": "[1]; 72 h", "value": 0.7, "unit": "U"}]}, {"molecule": "GLGGDFEEIPSDEIIE [GL16]", "values": [{"measurement": "effect on fibrinogen clotting time / thrombin fibrinogenolytic activity", "setting": "thrombin", "value": "inhibited the fibrinogenolytic activity; also recorded: prolonged fibrinogen clotting times in a dose dependent manner"}, {"measurement": "effect on thrombin amidolytic activity", "setting": "human α-thrombin; 3-300 μM", "value": "did not inhibit amidolytic activity even at 300 μM; also recorded: unable to inhibit thrombin amidolytic activity"}, {"measurement": "Hill Slope", "setting": "human α-thrombin; Table 2", "value": "N. I."}, {"measurement": "IC50(nM)", "setting": "human α-thrombin; Table 2", "value": "N. I.*"}, {"measurement": "Ki(nM)", "setting": "human α-thrombin; Table 2", "value": "N. I."}, {"measurement": "activation of thrombin amidolytic activity", "setting": "human α-thrombin; high concentrations, up to 300 μM", "value": "5-10%"}]}, {"molecule": "CC[C@H](C)[C@H](NC(=O)[C@H](C)NC(=O)[C@H](CC(=O)O)NC(=O)[C@H](CC(=O)O)NC(=O)[C@@H]1CCCN1C(=O)[C@@H](NC(=O)[C@H](CCC(=O)O)NC(=O)[C@H](CCC(=O)O)NC(=O)[C@H](Cc1ccccc1)NC(=O)[C@H](CC(=O)O)NC(=O)CNC(=O)[C@@H]1CCCN1C(=O)[C@@H]1CCCN1C(=O)[C@H](C)NC(=O)[C@@H](NC(=O)[C@H](CCCCN)NC(=O)[C@H](Cc1c[nH]cn1)NC(=O)[C@H](CCSC)NC(=O)[C@H](CCCCN)NC(=O)[C@@H]1CCCN1C(=O)[C@H](CCC(=O)O)NC(=O)[C@H](C)NC(=O)[C@H](CCCNC(=N)N)NC(=O)[C@@H](NC(=O)[C@H](C)NC(=O)[C@H](CCC(=O)O)NC(=O)[C@H](CC(=O)O)NC(=O)[C@@H](N)CO)C(C)C)[C@@H](C)O)[C@@H](C)CC)C(=O)N[C@@H](CCC(=O)O)C(=O)N[C@@H](CCC(=O)O)C(=O)O", "note": "[UV004] (H-SDEAVRAEPKMHKTAPPGDFEEIPDDAIEE-OH)", "values": [{"measurement": "IC50", "setting": "human α-thrombin", "value": "0.46 ± 0.08", "unit": "nM"}, {"measurement": "Ki", "setting": "human α-thrombin", "value": "0.00455 ± 0.00037", "unit": "nM"}]}, {"molecule": "CC[C@H](C)[C@H](NC(=O)[C@H](CCCCN)NC(=O)[C@@H]1CCCN1C(=O)[C@@H](NC(=O)[C@H](C)NC(=O)[C@@H](NC(=O)[C@H](CCC(N)=O)NC(=O)[C@H](Cc1c[nH]cn1)NC(=O)CNC(=O)CNC(=O)[C@@H](N)CO)[C@@H](C)O)C(C)C)C(=O)N[C@@H](C)C(=O)N[C@@H](CCCCN)C(=O)N[C@@H](CCC(N)=O)C(=O)NCC(=O)N[C@@H](CC(C)C)C(=O)NCC(=O)NCC(=O)N[C@@H](CC(=O)O)C(=O)N[C@@H](Cc1ccccc1)C(=O)N[C@@H](CCC(=O)O)C(=O)N[C@@H](CCC(=O)O)C(=O)N[C@H](C(=O)N1CCC[C@H]1C(=O)N[C@@H](CO)C(=O)N[C@@H](CC(=O)O)C(=O)N[C@@H](CCC(=O)O)C(=O)N[C@H](C(=O)N[C@H](C(=O)N[C@@H](CCC(=O)O)C(=O)O)[C@@H](C)CC)[C@@H](C)CC)[C@@H](C)CC", "note": "[Peptide S12A] (H-SGGHQTAVPKIAKQGLGGDFEEIPSDEIIE-OH; N-terminus and C-terminus assumed)", "values": [{"measurement": "fold drop in potency compared with avathrin", "setting": "human α-thrombin", "value": "> 10 fold and 20 fold"}, {"measurement": "Hill slope of thrombin amidolytic inhibition", "setting": "human α-thrombin", "value": "0.62±0.01"}, {"measurement": "IC50", "setting": "human α-thrombin", "value": "101 ± 1.32", "unit": "nM"}, {"measurement": "Hill Slope", "setting": "human α-thrombin; Table 2", "value": "0.62 ± 0.01"}, {"measurement": "Ki", "setting": "human α-thrombin", "value": "6.07 ± 0.18", "unit": "nM"}]}, {"molecule": "hirudin [reference compound]", "values": [{"measurement": "Multiplate AUC (U)", "setting": "[1]; 1.5 h", "value": 69.5, "unit": "U"}, {"measurement": "Multiplate AUC (U)", "setting": "[1]; 4 h", "value": 50.2, "unit": "U"}, {"measurement": "Multiplate AUC (U)", "setting": "[1]; 24 h", "value": 36.2, "unit": "U"}, {"measurement": "Multiplate AUC (U)", "setting": "[1]; 48 h", "value": 29.1, "unit": "U"}, {"measurement": "Multiplate AUC (U)", "setting": "[1]; 72 h", "value": 26.9, "unit": "U"}]}, {"molecule": "CC[C@H](C)[C@H](NC(=O)[C@H](C)NC(=O)[C@H](CC(=O)O)NC(=O)[C@H](CC(=O)O)NC(=O)[C@@H]1CCCN1C(=O)[C@@H](NC(=O)[C@H](CCC(=O)O)NC(=O)[C@H](CCC(=O)O)NC(=O)[C@H](Cc1ccccc1)NC(=O)[C@H](CC(=O)O)NC(=O)CNC(=O)[C@@H]1CCCN1C(=O)[C@@H]1CCCN1C(=O)[C@H](C)NC(=O)[C@@H](NC(=O)[C@H](CO)NC(=O)[C@H](Cc1ccc(O)cc1)NC(=O)[C@H](CCSC)NC(=O)[C@H](CCCCN)NC(=O)[C@@H]1CCCN1C(=O)[C@@H](NC(=O)[C@H](C)NC(=O)[C@@H](NC(=O)[C@H](CC(=O)O)NC(=O)CNC(=O)[C@H](CCC(N)=O)NC(=O)[C@H](CC(=O)O)NC(=O)[C@@H](N)CO)C(C)C)[C@@H](C)CC)[C@@H](C)O)[C@@H](C)CC)C(=O)N[C@@H](CCC(=O)O)C(=O)N[C@@H](CCC(=O)O)C(=O)O", "note": "[UV003] (H-SDQGDVAIPKMYSTAPPGDFEEIPDDAIEE-OH)", "values": [{"measurement": "IC50", "setting": "human α-thrombin", "value": "0.6 ± 0.2", "unit": "nM"}, {"measurement": "Ki", "setting": "human α-thrombin", "value": "0.00421 ± 0.00096", "unit": "nM"}]}, {"molecule": "CC[C@H](C)[C@H](NC(=O)[C@H](CCCCN)NC(=O)[C@@H]1CCCN1C(=O)[C@@H](NC(=O)[C@H](C)NC(=O)[C@@H](NC(=O)[C@H](CCC(N)=O)NC(=O)[C@H](Cc1c[nH]cn1)NC(=O)CNC(=O)CNC(=O)[C@@H](N)CO)[C@@H](C)O)C(C)C)C(=O)N[C@@H](Cc1c[nH]cn1)C(=O)N[C@@H](CCCCN)C(=O)N[C@@H](CCC(N)=O)C(=O)NCC(=O)N[C@@H](CC(C)C)C(=O)NCC(=O)NCC(=O)N[C@@H](CC(=O)O)C(=O)N[C@@H](Cc1ccccc1)C(=O)N[C@@H](CCC(=O)O)C(=O)N[C@@H](CCC(=O)O)C(=O)N[C@H](C(=O)N1CCC[C@H]1C(=O)N[C@@H](CO)C(=O)N[C@@H](CC(=O)O)C(=O)N[C@@H](CCC(=O)O)C(=O)N[C@H](C(=O)N[C@H](C(=O)N[C@@H](CCC(=O)O)C(=O)O)[C@@H](C)CC)[C@@H](C)CC)[C@@H](C)CC", "note": "[Peptide S12H] (H-SGGHQTAVPKIHKQGLGGDFEEIPSDEIIE-OH; N-terminus and C-terminus assumed)", "values": [{"measurement": "fold drop in potency compared with avathrin", "setting": "human α-thrombin", "value": 2, "unit": "fold"}, {"measurement": "Hill slope of thrombin amidolytic inhibition", "setting": "human α-thrombin", "value": "0.88±0.02"}, {"measurement": "IC50", "setting": "human α-thrombin", "value": "18.5 ± 0.32", "unit": "nM"}, {"measurement": "Hill Slope", "setting": "human α-thrombin; Table 2", "value": "0.88 ± 0.02"}, {"measurement": "Ki", "setting": "human α-thrombin", "value": "1.23 ± 0.04", "unit": "nM"}]}]}
